Experimental data taken from EP0326331B1, “Substituted quinolines and cinnolines” (Dow AgroSciences LLC, priority 1988, dated 1989).
Where two headings read alike, the source gives them in different places.

Columns and labels:
Type in all cases: in vivo
corn rootworm = assay: Mite/insect screen, CRW; settings: percent mortality; for mortality at 12 ppm: read-out: CRW RESULTS %
Method in brief: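 Corn rootworm mortality (%) was evaluated following standard exposure times. Test material was emulsified by dissolution in acetone/alcohol (1:1) containing sulfonate/nonionic emulsifier blends TOXIMUL R (23 g/L) and TOXIMUL S (13 g/L), and water-diluted to the indicated doses.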

[1] = system: southern armyworm (Spodopetra eridania Cramer); assay: Mite/insect screen, SAW; settings: Spodoptera eridania, percent mortality, read-out: SAW RESULTS %
Method in brief: (§1)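 Percent mortality was scored after standard exposure periods, following spraying of leaves to runoff (both surfaces, 10 psi, 1 h drying) with water dilutions of compound in emulsifier-containing acetone/alcohol (50:50). Armyworms received excised treated leaves in dishes.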

[2] = system: Twospotted spider mites (Tetranychus urticae Koch); assay: Mite/insect screen, SM; settings: percent mortality; for mortality at 200 ppm: Tetranychus urticae, read-out: SM RESULTS %
Method in brief: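 Read-out: percent mortality after standard exposure periods. Test solutions were water dilutions of compound dissolved in acetone/alcohol (50:50) with emulsifier blends; leaves were sprayed to runoff on both surfaces and air-dried for one hour before exposure.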

[3] = system: Erysiphe graminis tritici (powdery mildew); assay: Test 1 greenhouse foliar spray screen, powdery mildew on wheat; settings: disease control rating, foliar spray on wheat, 400 ppm (+++ at 100 ppm)
[4] = system: Puccinia recondita tritici (leaf rust); assay: Test 1 greenhouse foliar spray screen, leaf rust on wheat; settings: disease control rating, foliar spray on wheat, 400 ppm (+++ at 100 ppm)
[5] = system: Pseudoperonospora cubensis (downy mildew); assay: Test 1 greenhouse foliar spray screen, downy mildew on squash; settings: for DOWN MDEW: disease control rating, foliar spray on squash, 400 ppm (+++ at 100 ppm)
[6] = system: melon aphids (Aphis gossypii Glover); assay: Mite/insect screen, MA; settings: percent mortality; for mortality at 200 ppm: Aphis gossypii, read-out: MA RESULTS %
Method in brief: as §1

[7] = system: Venturia inaequalis (apple scab); assay: Test 1 greenhouse foliar spray screen, apple scab on apple seedling; settings: disease control rating, foliar spray on apple seedling, 400 ppm (+++ at 100 ppm)
[8] = system: Septoria tritici (leaf blotch); assay: Test 1 greenhouse foliar spray screen, leaf blotch on wheat; settings: disease control rating, foliar spray on wheat, 400 ppm (+++ at 100 ppm)
[9] = system: Pyricularia oryzae (rice blast); assay: whole plant or invertebrate; settings: disease control rating, foliar spray on rice, 400 ppm (+++ at 100 ppm)
[10] = system: Botrytis cinerea (gray mold); assay: Test 1 greenhouse foliar spray screen, gray mold on grape berries; settings: disease control rating, spray on grape berries, 400 ppm (+++ at 100 ppm)
[11] = system: Cercospora beticola (leaf spot); assay: Test 1 greenhouse foliar spray screen, leaf spot on sugar beet; settings: disease control rating, foliar spray on sugar beet, 400 ppm (+++ at 100 ppm)
[12] = foliar, rate 200 ppm, foliar spray on squash

Row | SMILES | mortality at 12 ppm (corn rootworm; CRW RATE 12.00 PPM) [%] | mortality at 200 ppm ([1]; SAW, SM & MA RATE 200 PPM) [%] | mortality at 200 ppm ([2]; SAW, SM & MA RATE 200 PPM) [%] | POWD MDEW [3] | LEAF RUST [4] | DOWN MDEW [5] | mortality at 200 ppm ([6]; SAW, SM & MA RATE 200 PPM) [%] | APPL SCAB [7] | LEAF BLOT [8] | RICE BLAST [9] | GRAY MOLD [10] | activity against downy mildew ([5]; summary statement in the description) | CRW RESULTS % (corn rootworm; CRW RATE 12.00 PPM) [%] | SM RESULTS % ([2]; SAW, SM & MA RATE 200 PPM) [%] | MA RESULTS % ([6]; SAW, SM & MA RATE 200 PPM) [%] | LEAF SPOT [11] | mortality at 12 ppm (corn rootworm; CRW rate 12.00 ppm) [%] | mortality at 200 ppm [1, 12] [%] | mortality at 200 ppm [2, 12] [%] | mortality at 200 ppm [6, 12] [%]
1 | Clc1ccc2c(NCCc3ccccc3)ccnc2c1 [Example 31, 7-chloro-N-(2-phenylethyl)-4-quinolinamine] | 0 | 0 | 0 | ++ (90-100% control at 400 ppm) | + (20-89% control at 400 ppm) | +++ (90-100% control at 100 ppm) | 0 | - (0-19% control at 400 ppm) | - (0-19% control at 400 ppm) | + (20-89% control at 400 ppm) | - (0-19% control at 400 ppm) |  |  |  |  |  |  |  |  | 
2 | Cc1ccc2c(NCCc3ccccc3)ccnc2c1C [Example 32, 7,8-dimethyl-N-(2-phenylethyl)-4-quinolinamine] | 0 | 0 | 0 | + (20-89% control at 400 ppm) | - (0-19% control at 400 ppm) | +++ (90-100% control at 100 ppm) | 0 | - (0-19% control at 400 ppm) | - (0-19% control at 400 ppm) | + (20-89% control at 400 ppm) | - (0-19% control at 400 ppm) |  |  |  |  |  |  |  |  | 
3 | Clc1cccc2c(NCCc3ccccc3)ccnc12 [Example 33, 8-chloro-N-(2-phenylethyl)-4-quinolinamine] | 0 | 0 | 0 | - (0-19% control at 400 ppm) | + (20-89% control at 400 ppm) | +++ (90-100% control at 100 ppm) | 0 | - (0-19% control at 400 ppm) | - (0-19% control at 400 ppm) | + (20-89% control at 400 ppm) | - (0-19% control at 400 ppm) | particularly excellent activity |  |  |  |  |  |  |  | 
4 | Fc1cccc2c(NCCc3cccc(Cl)c3)ccnc12 [Example 74, N-[2-(3-chlorophenyl)ethyl]-8-fluoro-4-quinolinamine] | 0 |  | 0 | + (20-89% control at 400 ppm) | +++ (90-100% control at 100 ppm) | +++ (90-100% control at 100 ppm) | 0 | - (0-19% control at 400 ppm) | - (0-19% control at 400 ppm) | + (20-89% control at 400 ppm) | - (0-19% control at 400 ppm) |  | 0 | 0 | 0 | +++ (90-100% control at 100 ppm) |  |  |  | 
5 | CC(CNc1ccnc2c(F)cccc12)c1ccc(Cl)cc1 (stereo not shown) [Example 79, N-[2-(4-chlorophenyl)propyl]-8-fluoro-4-quinolinamine] | 0 |  | 0 | + (20-89% control at 400 ppm) | ++ (90-100% control at 400 ppm) | +++ (90-100% control at 100 ppm) | 0 | - (0-19% control at 400 ppm) | + (20-89% control at 400 ppm) | ++ (90-100% control at 400 ppm) | - (0-19% control at 400 ppm) |  | 0 | 0 | 0 | +++ (90-100% control at 100 ppm) |  |  |  | 
6 | c1ccc(CCNc2cc(NCCc3ccccc3)c3ccccc3n2)cc1 [Example 181, N,N'-bis(2-phenylethyl)-2,4-quinolinediamine] |  |  |  | + (20-89% control at 400 ppm) | + (20-89% control at 400 ppm) | +++ (90-100% control at 100 ppm) |  | - (0-19% control at 400 ppm) | - (0-19% control at 400 ppm) | + (20-89% control at 400 ppm) | - (0-19% control at 400 ppm) |  |  |  |  |  | 0 | 0 | 0 | 0
